Measured values: patent US20110044938A1 (NYCOMED GMBH, priority 2006, published 2011)

What was measured:
[1] = tested on: RKO (RKOp27) human colon adenocarcinoma cells; assay: Alamar Blue cell viability assay, anti-proliferative/cytotoxic activity on proliferating RKO subclones; assay type: cell-based; conditions: RKOp27, 72 h, RKO p27 uninduced (proliferating) cells, value = class bound given in Table A, read-out: −logIC50 RKO p27 uninduced (proliferating) (converted)
How it was run: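 Alamar Blue fluorescence (ex 544, em 590 nm) after 72 h compound exposure at 37 °C, 5% CO2, normalised to untreated controls set at 100%. Cells were seeded at 5000 per well and dosed 24 h later with serial semi-logarithmic dilutions in 10% FCS DMEM, four replicates each. −log IC50 [mol/l] was derived from concentration-effect curves.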

[2] = tested on: subclones of RKO colon adenocarcinoma cells (RKOp27 or RKOp21) arrested by Ponasterone A; assay: Alamar Blue cell viability assay, cell cycle specific mode of action: cells arrested by ectopic p27Kip1 induced by Ponasterone A versus proliferating cells; assay type: cell-based; conditions: Homo sapiens, RKO p27 induced (arrested) cells, 10 μM Ponasterone A, 72 hours, value = class bound given in Table A, read-out: −logIC50 RKO p27 induced (arrested) (converted)
How it was run: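 Viability of proliferating versus Ponasterone A (10 μM)-arrested RKOp27/RKOp21 cells after 72 h compound exposure at 37° C, in quadruplicate. Read-out is Alamar Blue fluorescence (544/590 nm) normalised to untreated cells = 100%; values as −log IC50.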

SMILES | IC50 [1] | IC50 [2]
COc1cccc(CCC(=O)Nc2sc3c(c2C#N)CCC(OC(=O)NCc2nccn2C)C3)c1 (centres unmarked) [Example 261, (1-Methyl-1H-imidazol-2-ylmethyl)-carbamic acid 3-cyano-2-[3-(3-methoxy-phenyl)-propanoylamino]-4,5,6,7-tetrahydro-benzo[b]thiophen-6-yl ester] | ≤ 501 nM | ≥ 100000 nM
COc1cccc(C(C)CC(=O)Nc2sc3c(c2C#N)CCC(OC(=O)NCCn2ccnc2)C3)c1 (centres unmarked) [Example 280, (2-Imidazol-1-yl-ethyl)-carbamic acid 3-cyano-2-[3-(3-methoxy-phenyl)-butanoylamino]-4,5,6,7-tetrahydro-benzo[b] thiophen-6-yl ester] | 501 to 2000 nM | ≥ 50100 nM
CC(CC(=O)Nc1sc2c(c1C#N)CCC(COC(=O)NCC1CCCO1)C2)c1ccccc1 (centres unmarked) [Example 315, (Tetrahydrofuran-2-ylmethyl)-carbamic acid 3-cyano-2-(3-phenyl-butanoylamino)-4,5,6,7-tetrahydro-benzo[b]thiophen-6-ylmethyl ester] | 501 to 2000 nM | ≥ 50100 nM
COCCOC(=O)OC1CCc2c(sc(NC(=O)CCc3cccc(OC)c3)c2C#N)C1 (centres unmarked) [Example 217, Carbonic acid 3-cyano-2-[3-(3-methoxy-phenyl)-propanoylamino]-4,5,6,7-tetrahydro-benzo[b]thiophen-6-yl ester 2-methoxy-ethyl ester] | 501 to 2000 nM | ≥ 100000 nM
CNC(=O)OC[C@@H]1CCc2c(sc(NC(=O)/C=C/c3cccnc3)c2C#N)C1 [Example 16b, Methyl-carbarnic acid (R)-3-cyano-2-((E)-3-pyridin-3-yl-allanoylamino)-4,5,6,7-tetrahydro-benzo[b]thiophen-6-ylmethyl ester] | 501 to 2000 nM | ≥ 100000 nM
COc1cccc(CCC(=O)Nc2sc3c(c2C#N)CCC(OC(=O)NC2CCOCC2)C3)c1 (centres unmarked) [Example 251, (Tetrahydro-pyran-4-yl)-carbamicacid 3-cyano-2-[3-(3-methoxy-phenyl)-propanoylamino]-4,5,6,7-tetrahydro-benzo[b]thiophen-6-yl ester] | 501 to 2000 nM | ≥ 100000 nM
Cc1nocc1CNC(=O)OCC1CCc2c(sc(NC(=O)/C=C/c3cccnc3)c2C#N)C1 (centres unmarked) [Example 64, (3-Methyl-isoxazol-4-ylmethyl)-carbamic acid 3-cyano-2-((E)-3-pyridin-3-yl-allanoylamino)-4,5,6,7-tetrahydro-benzo[b]thiophen-6-ylmethyl ester] | 501 to 2000 nM | ≥ 100000 nM
Cn1cc(CNC(=O)OC2CCc3c(sc(NC(=O)/C=C/c4cccnc4)c3C#N)C2)cn1 (centres unmarked) [Example 41, (1-Methyl-1H-pyrazol-4-ylmethyl)-carbamic acid 3-cyano-2-((E)-3-pyridin-3-yl-allanoylamino)-4,5,6,7-tetrahydro-benzo[b]thiophen-6-yl ester] | ≤ 501 nM | ≥ 100000 nM
Cc1nnc(CNC(=O)OCC2CCc3c(sc(NC(=O)/C=C/c4cccnc4)c3C#N)C2)o1 (centres unmarked) [Example 72, (5-Methyl-[1,3,4]oxadiazol-2-ylmethyl)-carbamic acid 3-cyano-2-((E)-3-pyridin-3-yl-allanoylamino)-4,5,6,7-tetrahydro-benzo[b]thiophen-6-ylmethyl ester] | ≤ 501 nM | ≥ 100000 nM
CCOc1ccccc1/C=C/C(=O)Nc1sc2c(c1C#N)CCC(OC(=O)OCCN1CCOCC1)C2 (centres unmarked) [Example 13, Carbonic acid 3-cyano-2-[(E)-3-(2-ethoxy-phenyl)-allanoylamino]-4,5,6,7-tetrahydro-benzo[b]thiophen-6-yl ester 2-morpholin-4-yl-ethyl ester] | 501 to 2000 nM | ≥ 100000 nM
CC(CC(=O)Nc1sc2c(c1C#N)CCC(OC(=O)NCc1ccnn1C)C2)c1ccccc1 (centres unmarked) [Example 293, (2-Methyl-2H-pyrazol-3-ylmethyl)-carbamic acid 3-cyano-2-(3-phenyl-butanoylamino)-4,5,6,7-tetrahydro-benzo[b] thiophen-6-yl ester] | ≤ 501 nM | ≥ 50100 nM
N#Cc1c(NC(=O)/C=C/c2cccnc2)sc2c1CCC(OC(=O)N[C@H]1CC[C@H](O)CC1)C2 (stereo partly drawn) [Example 106, trans-4-Hydroxycyclohexyl-carbamic acid 3-cyano-2-((E)-3-pyridin-3-yl-allanoylamino)-4,5,6,7-tetrahydro-benzo[b]thiophen-6-yl ester] | 501 to 2000 nM | ≥ 100000 nM
N#Cc1c(NC(=O)/C=C/c2cccnc2)sc2c1CCC(OC(=O)NC1COC1)C2 (centres unmarked) [Example 148, Oxetan-3-yl-carbamicacid 3-cyano-2-((E)-3-pyridin-3-yl-allanoylamino)-4,5,6,7-tetrahydro-benzo[b]thiophen-6-yl ester] | 501 to 2000 nM | ≥ 100000 nM
CC(CC(=O)Nc1sc2c(c1C#N)CCC(OC(=O)NCC1CCCO1)C2)c1ccccc1 (centres unmarked) [Example 297, (Tetrahydro-furan-2-ylmethyl)-carbamic acid 3-cyano-2-(3-phenyl-butanoyl-amino)-4,5,6,7-tetrahydro-benzo[b]thiophen-6-yl ester] | 501 to 2000 nM | ≥ 10000 nM
COc1cccc(CCC(=O)Nc2sc3c(c2C#N)CCC(COC(=O)NCc2cnn(C)c2)C3)c1 (centres unmarked) [Example 239, (1-Methyl-1H-pyrazol-4-ylmethyl)-carbamic acid 3-cyano-2-[3-(3-methoxy-phenyl)-propanoylamino]-4,5,6,7-tetrahydro-benzo[b]thiophen-6-ylmethyl ester] | ≤ 501 nM | ≥ 100000 nM
CC(CC(=O)Nc1sc2c(c1C#N)CCC(COC(=O)N1CCOCC1)C2)c1cccnc1 (centres unmarked) [Example 367, Morpholine-4-carboxylic acid 3-cyano-2-(3-pyridin-3-yl-butanoylamino)-4,5,6,7-tetrahydro-benzo[b]thiophen-6-ylmethyl ester] | 501 to 2000 nM | ≥ 50100 nM
CC(CC(=O)Nc1sc2c(c1C#N)CCC(COC(=O)NCc1ccccc1)C2)c1ccccn1 (centres unmarked) [Example 343, Benzyl-carbamic acid 3-cyano-2-(3-pyridin-2-yl-butanoyl-amino)-4,5,6,7-tetrahydro-benzo[b] thiophen-6-ylmethyl ester] | ≤ 501 nM | ≥ 50100 nM
CCOc1ccccc1CCC(=O)Nc1sc2c(c1C#N)CCC(COC(=O)NCC1CCOCC1)C2 (centres unmarked) [Example 194, (Tetrahydro-pyran-4-ylmethyl)-carbamic acid 3-cyano-2-[3-(2-ethoxy-phenyl)-propanoylamino]-4,5,6,7-tetrahydro-benzo[b]thiophen-6-ylmethyl ester] | ≤ 501 nM | ≥ 10000 nM
N#Cc1c(NC(=O)/C=C/c2cccnc2)sc2c1CCC(COC(=O)NCc1nccs1)C2 (centres unmarked) [Example 65, Thiazol-2-ylmethyl-carbamic acid 3-cyano-2-((E)-3-pyridin-3-yl-allanoylamino)-4,5,6,7-tetrahydro-benzo[b]thiophen-6-ylmethyl ester] | 501 to 2000 nM | ≥ 100000 nM
